Data published in ChEMBL document CHEMBL4002629, “Design, synthesis and biological evaluation of novel 3-substituted 4-anilino-coumarin derivatives as antitumor agents” (Bioorg Med Chem Lett, 2017).

Assays:
HCT-116 = assay: Antiproliferative activity against human HCT116 cells after 48 hrs by MTT assay; assay type: functional, cell-based; conditions: HCT-116, 48 h
HepG2 = assay: Antiproliferative activity against human HepG2 cells after 48 hrs by MTT assay; assay type: functional, cell-based; conditions: HepG2, 48 h
MCF7 = assay: Antiproliferative activity against human MCF7 cells after 48 hrs by MTT assay; assay type: functional, cell-based; conditions: MCF7, 48 h
PANC-1 = assay: Antiproliferative activity against human PANC1 cells after 48 hrs by MTT assay; assay type: functional, cell-based; conditions: PANC-1, 48 h
HUVEC = assay: Antiproliferative activity against HUVEC after 48 hrs by MTT assay; assay type: cell-based; conditions: Homo sapiens
[1] = Selectivity index, ratio of IC50 for HUVEC to IC50 for human MCF7 cells
[2] = Selectivity index, ratio of IC50 for HUVEC to IC50 for human HCT116 cells
[3] = Selectivity index, ratio of IC50 for HUVEC to IC50 for human PANC1 cells
[4] = Selectivity index, ratio of IC50 for HUVEC to IC50 for human HepG2 cells

Compound	IC50 (HCT-116)	IC50 (HepG2)	IC50 (MCF7)	IC50 (PANC-1)	IC50 (HUVEC)	Ratio IC50 [1]	Ratio IC50 [2]	Ratio IC50 [3]	Ratio IC50 [4]
COc1ccc(Nc2c(C(=O)C(F)(F)F)c(=O)oc3cc(OC)ccc23)cc1	61.2 µM	38.4 µM	55.7 µM	47.5 µM					
COc1ccc2c(Nc3ccc4c(c3)OCO4)c(C(=O)C(F)(F)F)c(=O)oc2c1	12.5 µM	10.5 µM	37.4 µM	15.8 µM					
COc1ccc(-c2c(Nc3cccc(C(F)(F)F)c3)c3ccccc3oc2=O)cc1	55.7 µM	66.4 µM	21.6 µM	49.1 µM					
COc1ccc(-c2c(Nc3ccc(C)cc3)c3ccc(O)cc3oc2=O)cc1		88.3 µM	85.5 µM						
COc1ccc(-c2c(Nc3cc(OC)c(OC)c(OC)c3)c3ccccc3oc2=O)cc1	63.5 µM	77.3 µM	82.3 µM	77.6 µM					
COc1ccc(-c2c(Nc3ccc(C)cc3)c3ccccc3oc2=O)cc1	64.8 µM	59.4 µM	65.3 µM	66.1 µM					
COc1ccc(-c2c(Nc3ccc(C)cc3)c3ccc(OC)cc3oc2=O)cc1	82.4 µM	74.4 µM	66.9 µM	76.5 µM					
COc1ccc(-c2c(Nc3ccc4c(c3)OCO4)c3ccc(O)cc3oc2=O)cc1	41.2 µM	79 µM	89.5 µM	48.2 µM					
COc1ccc2oc(=O)c(C(=O)C(F)(F)F)c(Nc3ccc(F)cc3)c2c1		> 100 µM	> 100 µM						
COc1ccc2oc(=O)c(C(=O)C(F)(F)F)c(Nc3ccc(C)c(O)c3)c2c1	4.62 µM	6.71 µM	20.1 µM	5.62 µM	29.4 µM	1.46	6.37	5.23	4.39
COc1ccc(-c2c(Nc3ccc(F)cc3)c3ccc(O)cc3oc2=O)cc1	66.1 µM	65.6 µM	71.5 µM	75 µM					
COc1ccc(-c2c(Nc3ccc(NC(C)=O)cc3)c3ccc(OC)cc3oc2=O)cc1		> 100 µM	85.8 µM						
COc1ccc(-c2c(Nc3ccc4c(c3)OCO4)c3ccccc3oc2=O)cc1		> 100 µM	> 100 µM						
COc1ccc(-c2c(Nc3ccc(C)c(O)c3)c3ccccc3oc2=O)cc1	12.3 µM	10.2 µM	12.1 µM	9.75 µM					
COc1ccc(-c2c(Nc3ccc(NC(C)=O)cc3)c3ccccc3oc2=O)cc1		> 100 µM	> 100 µM						
CCOc1ccc(Nc2c(-c3ccc(OC)cc3)c(=O)oc3ccccc23)cc1	29.5 µM	31.3 µM	30.7 µM	32.9 µM					
COc1ccc(-c2c(Nc3ccc(F)cc3)c3ccc(OC)cc3oc2=O)cc1		> 100 µM	> 100 µM						
COc1ccc(-c2c(Nc3cccc(C(F)(F)F)c3)c3ccc(OC)cc3oc2=O)cc1	41.2 µM	57.2 µM	36.2 µM	39.5 µM					
COc1ccc2c(Nc3cc(OC)c(OC)c(OC)c3)c(C(=O)C(F)(F)F)c(=O)oc2c1	17 µM	26.4 µM	19.2 µM	24.1 µM					
